Reference: ChEMBL document CHEMBL1150453, “Novel catalytic activity of immobilized spores under reduced water activity” (1997)

Columns and labels:
Format in all cases: functional
Aspergillus ochraceus [1] = assay: Compound was tested for transformation of progesterone by immobilized spores of Aspergillus orchraceus TS
Aspergillus ochraceus [2] = assay: Compound was tested for transformation of progesterone by Dehydrated immobilized spores of Aspergillus orchraceus TS using the method Freeze-thaw
Aspergillus ochraceus [3] = assay: Compound was tested for transformation of progesterone by Dehydrated immobilized spores of Aspergillus orchraceus TS using the method Ethylacetate
Aspergillus ochraceus [4] = assay: Compound was tested for transformation of progesterone by Dehydrated immobilized spores of Aspergillus orchraceus TS using the method n-Butylacetate
Aspergillus ochraceus [5] = assay: Compound was tested for transformation of progesterone by Dehydrated immobilized spores of Aspergillus orchraceus TS using the method Amylacetate

SMILES	Activity (Aspergillus ochraceus [1])	Activity (Aspergillus ochraceus [2])	Activity (Aspergillus ochraceus [3])	Activity (Aspergillus ochraceus [4])	Activity (Aspergillus ochraceus [5])
CC(=O)C1CCC2C3CCC4=CC(=O)CCC4(C)C3[C@@H](O)CC12C (stereo partly specified)	27.2 uM (g of spores)-1	14 uM (g of spores)-1			
CC(=O)OC1CCC2C3CCC4=CC(=O)CCC4(C)C3CCC12C (stereo unspecified)		5 uM (g of spores)-1			
CC(=O)C1CCC2C3CCC4=CC(=O)C=CC4(C)C3CCC12C (stereo unspecified)		7.6 uM (g of spores)-1	23.6 uM (g of spores)-1	13.8 uM (g of spores)-1	16.1 uM (g of spores)-1
C[C@]12CCC(=O)C=C1CC[C@@H]1[C@@H]2CC[C@]2(C)C(=O)CC[C@@H]12 [ANDROSTENEDIONE]		14.7 uM (g of spores)-1	58.7 uM (g of spores)-1	40.4 uM (g of spores)-1	42.6 uM (g of spores)-1
C[C@]12C=CC(=O)C=C1CC[C@@H]1[C@@H]2CC[C@]2(C)C(=O)CC[C@@H]12 [ANDROSTENEDONE]		14.4 uM (g of spores)-1	22.2 uM (g of spores)-1	15.8 uM (g of spores)-1	16.1 uM (g of spores)-1
CC(=O)[C@@]1(O)CC[C@H]2[C@@H]3CCC4=CC(=O)CC[C@]4(C)[C@H]3CC[C@@]21C [HYDROXYPROGESTERONE]			20.8 uM (g of spores)-1	12.2 uM (g of spores)-1	13.8 uM (g of spores)-1
C[C@]12CCC(=O)C[C@@H]1CC[C@@H]1[C@@H]2CC[C@]2(C)[C@@H](O)CC[C@@H]12 [STANOLONE]		5.8 uM (g of spores)-1	4.2 uM (g of spores)-1	2.7 uM (g of spores)-1	2.9 uM (g of spores)-1
C[C@]12CC[C@H]3[C@@H](CCC4=CC(=O)CC[C@@]43C)[C@@H]1CC[C@@H]2O [TESTOSTERONE]		5.5 uM (g of spores)-1	3.9 uM (g of spores)-1	2.6 uM (g of spores)-1	2.7 uM (g of spores)-1
